The results in this text go back to patent publication US6342219B1 (Board of Regents, The University of Texas System, priority 1999, dated 2002).

Assay [1] relates to denatured VEGF121 and VEGF165. The experiment in a line: Western blot analysis. It counts as binding, human. The settings on record: reducing and non-reducing conditions. As to the method:
The nitrocellulose membrane was blocked using Sea-Block PP82-41 (East Coast Biologics, Berwick, Me.), and probed with primary antibodies using a mini-blotter apparatus (Immunetics, Cambridge, Mass.). The membranes were developed after incubation with the appropriate peroxidase-conjugated secondary antibody by ECL enhanced chemiluminescence.
Western blot analyses of anti-VEGF antibodies were conducted by separating VEGF165 in the presence of 5% FCS using SDS-PAGE on a 12% gel and analyzing by a standard western blotting protocol using ECL detection. The primary antibodies were incubated with the nitrocellulose membrane using a multi-lane mini-blotter apparatus.
On the technique in general: A western blot detects proteins with antibodies after separation by electrophoresis.

Assay [2] concerns A673 rhabdomyosarcoma. The experiment in a line: In vivo tumor growth inhibition, newly implanted A673. On the set-up: species or system nu/nu mice. As to the method:
FIG. 3A and FIG. 3B. […] FIG. 3A: 1×10^7 NCI-H358 NSCLC cells were injected subcutaneously into nu/nu mice on day 0. FIG. 3B: 5×10^6 A673 rhabdomyosarcoma cells were injected subcutaneously into nu/nu mice on day 0. Mice were injected i.p. with the indicated IgG on day 1 and 2 times/week thereafter. […] Tumors were measured 2-3 times per week. Mean and standard error is shown for the duration of the study in FIG. 3A, while data for the last day of the study (day 26) is shown in FIG. 3B.
Nu/nu mice were injected subcutaneously with either 1×10^7 NCI-H358 NSCLC cells or 5×10^6 A673 rhabdomyosarcoma cells on day 0. […] The tumors were then measured twice per wk for a period of approximately six wk for the NCI-H358 bearing mice and four wk for the A673 bearing mice. Tumor volume was calculated according to the formula: volume=L×W×H, where L=length, W=width, H=height.

In the next assay the test system is NCI-H358 NSCLC tumors. Description: Treatment of established NCI-H358 xenografts (FIG. 4). It counts as in vivo, nu/nu mice. The conditions noted are these: 50-100 μg i.p. every 3-5 days, approximately 10 weeks. The procedure: FIG. 4. […] Mean tumor volume along with the SEM over 116 days is shown.
Male nu/nu mice bearing subcutaneous NCI-H358 tumors or HT1080 fibrosarcoma 200-400 mm^3 in size were injected i.p. with test or control antibodies. The NCI-H358 bearing mice were treated with 100 μg of antibodies per injection three times a week during the first week and twice a week during the second and third week. The mice were then switched to 50 μg per injection every five days. The HT1080 bearing mice were treated with 100 μg of the indicated antibody or saline every other day throughout the duration of the study. In both studies, mice were sacrificed when their tumors reached 2500 mm^3 in size or earlier if tumors began to ulcerate.
Doses were 50-100 μg every 3-5 days. […] In addition to measuring mean tumor volume (FIG. 4), photographs of the mice from each treatment group were also taken to show the differences in tumor size and appearance at the end of the study.

The subject of assay [3] is A673 rhabdomyosarcoma. The experiment in a line: Treatment of established A673 tumors. Details: species or system mice. The settings on record: mouse, in vivo.
The test system of assay [4] is human tumors from cancer patients. The experiment in a line: Immunohistochemistry, endothelial cell staining, human tumors. It counts as binding. The settings on record: acetone fixed frozen sections. On the set-up: key: −, negative; +/−, very weak; 1+, weak; 2+, moderate; 3+, strong; 4+, very strong. The procedure: Tumors were snap frozen in liquid nitrogen and stored at −70° C. Frozen samples of tumor specimens from patients were obtained from the National Cancer Institute Cooperative Human Tissue Network (Southern Division, Birmingham, Ala.). Immunohistochemistry was performed as described by Burrows et al. (1995).

Assay [5] relates to VEGF-mediated growth of ABAE cells. The experiment in a line: Endothelial cell growth assay (MTS). Type of assay: cell-based, bovine.
Method: ABAE cells were grown in the presence of the various indicated antibodies and 0.5 nM VEGF. Growth after 4 days was determined calorimetrically by the enzymatic conversion of MTS (Owen's reagent) to a yellow formazan. […] Background was determined by growing cells without VEGF or antibody and was subtracted from the control and sample wells.
Adult bovine aortic endothelial (ABAE) cells were plated into 96-well tissue culture plates at 1500 cells/well and grown in the presence of 0.5 nM human VEGF with the addition of the various sample and control antibodies. Control wells received media with or without VEGF.
After 4 days of incubation, the cells were quantified by an MTS (3-(4,5-dimethylthiazol-2-yl)-5-(3-carboxylmethoxyphenyl)-2-(4-sulfophenyl)-2H-tetrazolium, inner salt) conversion assay, where MTS conversion to a formazan is proportional to cell number and can be followed by absorbance at 490 nm (Cell Titer 96 AQueous One Solution Cell Proliferation Assay, Promega, Madison, Wis.). The assay was performed according to the manufacturer's instructions.
Cell growth was estimated by subtracting the MTS conversion in cultures to which VEGF was not added. Results were expressed as a percentage of the MTS conversion in control cultures to which only VEGF was added (Buttke et al., 1993).

Chain of denatured VEGF121 and VEGF165 (P15692 207-320 limits assumed): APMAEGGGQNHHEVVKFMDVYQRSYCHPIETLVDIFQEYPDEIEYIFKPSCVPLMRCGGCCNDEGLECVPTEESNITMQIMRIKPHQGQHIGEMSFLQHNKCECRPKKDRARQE

Turning to “2C3: anti-VEGF monoclonal antibody, IgG2a, k, produced by hybridoma ATCC PTA 1595; blocks VEGF binding to VEGFR2 but not VEGFR1 [Clone 2C3]”, the “Reactivity with denatured VEGF on western blots” value in assay [1] is listed as “react”. Also, in the assay with A673 rhabdomyosarcoma [2] (100 μg i.p. 2 times per wk from day 1, controls approximately 1000 mm^3), the “Final tumor volume, A673” value is listed as “approximately 150 mm^3”. Also, in the assay with A673 rhabdomyosarcoma [2] (10 or 1 μg twice per wk), the “Effect of lower doses on the growth of A673 tumors” value is “did slow the growth”. The “Mean tumor volume at the end of the study, of the initial mean tumor volume” value with NCI-H358 NSCLC tumors turned out to be 30%. The “Effect on growth of established A673 tumors” value with A673 rhabdomyosarcoma [3] is recorded as “significantly slowed the growth”. Moreover, in assay [4], the “Endothelial Cell Staining, Hu Tumor (various)” value was “−”. Also, the “Blocks VEGF-induced proliferation” value in assay [5] was “Yes”.
